Test results as given in patent publication US10131653B2, “Heterocyclic compound” (TAKEDA PHARMACEUTICAL COMPANY LIMITED, priority 2015, dated 2018).

How the values were obtained:
human OX1 receptor = molecular target: T1, human OX1 receptor (Homo sapiens, UniProt O43613); assay: Measurement of orexin receptor antagonistic activity (calcium fluorescence, FLIPRtetra); type: cell-based; settings: 10 μM test compound, CHO cells expressing human OX1 receptor, OX-A 1 nM; for inhibition at 10 µM: CHO, read-out: Human Orexin1 receptor inhibition (at 10 μM)
T1 construct: expressed in transfected cells; host or cells: CHO cells
T1 sequence (O43613 1-425): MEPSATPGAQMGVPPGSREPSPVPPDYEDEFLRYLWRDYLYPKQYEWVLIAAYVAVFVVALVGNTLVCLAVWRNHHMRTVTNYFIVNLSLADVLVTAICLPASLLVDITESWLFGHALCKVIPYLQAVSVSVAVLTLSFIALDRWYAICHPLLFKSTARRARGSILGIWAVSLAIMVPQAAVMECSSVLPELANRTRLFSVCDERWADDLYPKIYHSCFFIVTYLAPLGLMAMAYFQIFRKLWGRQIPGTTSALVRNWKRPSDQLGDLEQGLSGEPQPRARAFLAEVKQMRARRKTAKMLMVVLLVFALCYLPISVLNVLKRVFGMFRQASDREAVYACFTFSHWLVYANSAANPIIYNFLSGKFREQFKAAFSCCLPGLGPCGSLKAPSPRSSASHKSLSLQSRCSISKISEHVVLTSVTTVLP
How it was run: (§1)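 CHO cells expressing human OX1 or OX2 receptor, cultured one day. Compound in HBSS/20 mM HEPES/0.1% BSA added, then orexin-A at 1 nM final (OX1) or 0.3 nM final (OX2); calcium fluorescence by FLIPRtetra every 1 s for 2 min.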

human OX2 receptor = molecular target: T2, human OX2 receptor (Homo sapiens, UniProt O43614); assay: as above; type: cell-based; settings: 10 μM test compound, CHO cells expressing human OX2 receptor, OX-A 0.3 nM; for inhibition at 10 µM: CHO, read-out: Human Orexin2 receptor inhibition (at 10 μM)
T2 construct: expressed in transfected cells; host or cells: CHO cells
T2 sequence (O43614 1-444): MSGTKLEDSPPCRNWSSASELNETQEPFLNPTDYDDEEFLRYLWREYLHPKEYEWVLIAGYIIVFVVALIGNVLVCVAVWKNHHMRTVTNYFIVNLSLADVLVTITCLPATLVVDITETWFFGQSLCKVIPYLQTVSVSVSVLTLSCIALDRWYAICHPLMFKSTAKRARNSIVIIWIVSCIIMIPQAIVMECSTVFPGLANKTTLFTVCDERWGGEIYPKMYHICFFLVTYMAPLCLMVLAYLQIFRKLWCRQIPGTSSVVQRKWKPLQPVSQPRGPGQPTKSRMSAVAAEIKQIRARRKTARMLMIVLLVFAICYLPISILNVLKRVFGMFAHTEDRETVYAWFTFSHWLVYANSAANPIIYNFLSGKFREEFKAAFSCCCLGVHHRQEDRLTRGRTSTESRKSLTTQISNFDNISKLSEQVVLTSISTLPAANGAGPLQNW
How it was run: as §1

inhibition at 10 µM (human OX1 receptor) [%] | inhibition at 10 µM (human OX2 receptor) [%] | Human Orexin1 receptor inhibition (at 10 μM) (human OX1 receptor) [%] | Human Orexin2 receptor inhibition (at 10 μM) (human OX2 receptor) [%] | Structure (SMILES)
103 | 100 |  |  | Cc1cc(N2C[C@H](C)N(C(=O)c3ccccc3-n3nccn3)[C@H](C)CO2)nc(C)n1 [Example 172, ((4S,6R)-2-(2,6-dimethylpyrimidin-4-yl)-4,6-dimethyl-1,2,5-oxadiazepan-5-yl)(2-(2H-1,2,3-triazol-2-yl)phenyl)methanone]
103 | 103 |  |  | Cc1nccc(N2C[C@H](C)N(C(=O)c3ccccc3-n3nccn3)[C@H](C)CO2)n1 [Example 173, ((4S,6R)-4,6-dimethyl-2-(2-methylpyrimidin-4-yl)-1,2,5-oxadiazepan-5-yl) (2-(2H-1,2,3-triazol-2-yl)phenyl)methanone]
95 | 98 |  |  | Cc1cc(N2C[C@H](C)N(C(=O)c3ccccc3-n3nccn3)[C@H](C)CO2)ncn1 [Example 174, ((4S,6R)-4,6-dimethyl-2-(6-methylpyrimidin-4-yl)-1,2,5-oxadiazepan-5-yl) (2-(2H-1,2,3-triazol-2-yl)phenyl)methanone]
103 | 101 |  |  | Cc1ccc(-n2nccn2)c(C(=O)N2[C@H](C)CON(c3cc(C)nc(C)n3)C[C@@H]2C)c1 [Example 176, ((4S,6R)-2-(2,6-dimethylpyrimidin-4-yl)-4,6-dimethyl-1,2,5-oxadiazepan-5-yl)(5-methyl-2-(2H-1,2,3-triazol-2-yl)phenyl)methanone]
102 | 98 |  |  | Cc1ccc(-n2nccn2)c(C(=O)N2[C@H](C)CON(c3cc(C(F)F)nc(C)n3)C[C@@H]2C)c1 [Example 179, ((4S,6R)-2-(6-(difluoromethyl)-2-methylpyrimidin-4-yl)-4,6-dimethyl-1,2,5-oxadiazepan-5-yl) (5-methyl-2-(2H-1,2,3-triazol-2-yl)phenyl)methanone]
22 | 31 |  |  | Cc1cc(N2C[C@@H](C)N(C(=O)c3ccccc3-n3nccn3)[C@@H](C)CO2)nc(C)n1 [Example 185, ((4R,6S)-2-(2,6-dimethylpyrimidin-4-yl)-4,6-dimethyl-1,2,5-oxadiazepan-5-yl)(2-(2H-1,2,3-triazol-2-yl)phenyl)methanone]
100 | 103 |  |  | Cc1cc(N2CC(C)N(C(=O)c3ccccc3-n3nccn3)CCO2)nc(C)n1 (centres unmarked) [Example 187, (2-(2,6-dimethylpyrimidin-4-yl)-4-methyl-1,2,5-oxadiazepan-5-yl)(2-(2H-1,2,3-triazol-2-yl)phenyl)methanone]
37 | 57 |  |  | Cc1cc(N2CC(C)N(C(=O)c3ccccc3-n3nccn3)C[C@H](C)O2)nc(C)n1 (stereo partly drawn) [Example 189, ((7S)-2-(2,6-dimethylpyrimidin-4-yl)-4,7-dimethyl-1,2,5-oxadiazepan-5-yl)(2-(2H-1,2,3-triazol-2-yl)phenyl)methanone]
107 | 111 |  |  | Cc1cc(N2C[C@H](C)N(C(=O)c3ccccc3-n3nccn3)CC(C)O2)nc(C)n1 (stereo partly drawn) [Example 190, ((4S)-2-(2,6-dimethylpyrimidin-4-yl)-4,7-dimethyl-1,2,5-oxadiazepan-5-yl)(2-(2H-1,2,3-triazol-2-yl)phenyl)methanone]
 |  | 106 | 109 | Cc1cc(N2C[C@H](C)N(C(=O)c3ccccc3-n3nccn3)CC(C)O2)nc(C)n1 (stereo partly drawn) [Example 191, ((4S)-2-(2,6-dimethylpyrimidin-4-yl)-4,7-dimethyl-1,2,5-oxadiazepan-5-yl)(2-(2H-1,2,3-triazol-2-yl)phenyl)methanone]
 | 101 | 64 |  | Cc1cc(N2CCN(C(=O)c3ccccc3-n3nccn3)C(C)C(C)O2)nc(C)n1 (centres unmarked) [Example 192, (2-(2,6-dimethylpyrimidin-4-yl)-6,7-dimethyl-1,2,5-oxadiazepan-5-yl)(2-(2H-1,2,3-triazol-2-yl)phenyl)methanone]
 |  | 89 | 103 | Cc1cc(N2CCN(C(=O)c3ccccc3-n3nccn3)C(C)C(C)O2)nc(C)n1 (centres unmarked) [Example 193, (2-(2,6-dimethylpyrimidin-4-yl)-6,7-dimethyl-1,2,5-oxadiazepan-5-yl)(2-(2H-1,2,3-triazol-2-yl)phenyl)methanone]

Continued, compound first:

Structure (SMILES) | inhibition at 10 µM (human OX1 receptor) [%] | inhibition at 10 µM (human OX2 receptor) [%] | Human Orexin1 receptor inhibition (at 10 μM) (human OX1 receptor) [%] | Human Orexin2 receptor inhibition (at 10 μM) (human OX2 receptor) [%]
C[C@@H]1CON(c2ccnc(C3CC3)n2)C[C@H](C)N1C(=O)c1ccccc1-n1nccn1 [Example 175, ((4S,6R)-2-(2-cyclopropylpyrimidin-4-yl)-4,6-dimethyl-1,2,5-oxadiazepan-5-yl) (2-(2H-1,2,3-triazol-2-yl)phenyl)methanone] | 99 | 98 |  | 
Cc1ccc(-n2nccn2)c(C(=O)N2[C@H](C)CON(c3cc(C)nc(C(F)(F)F)n3)C[C@@H]2C)c1 [Example 177, ((4S,6R)-4,6-dimethyl-2-(6-methyl-2-(trifluoromethyl)pyrimidin-4-yl)-1,2,5-oxadiazepan-5-yl) (5-methyl-2-(2H-1,2,3-triazol-2-yl)phenyl)methanone] | 102 | 106 |  | 
Cc1ccc(-n2nccn2)c(C(=O)N2[C@H](C)CON(c3cc(C(F)(F)F)nc(C)n3)C[C@@H]2C)c1 [Example 178, ((4S,6R)-4,6-dimethyl-2-(2-methyl-6-(trifluoromethyl)pyrimidin-4-yl)-1,2,5-oxadiazepan-5-yl) (5-methyl-2-(2H-1,2,3-triazol-2-yl)phenyl)methanone] | 105 | 99 |  | 
Cc1nc(C(F)F)cc(N2C[C@H](C)N(C(=O)c3cc(F)ccc3-n3nccn3)[C@H](C)CO2)n1 [Example 180, ((4S,6R)-2-(6-(difluoromethyl)-2-methylpyrimidin-4-yl)-4,6-dimethyl-1,2,5-oxadiazepan-5-yl)(5-fluoro-2-(2H-1,2,3-triazol-2-yl)phenyl)methanone] | 90 | 101 |  | 
Cc1nc(N2C[C@H](C)N(C(=O)c3cc(F)ccc3-n3nccn3)[C@H](C)CO2)cc(C(F)(F)F)n1 [Example 181, ((4S,6R)-4,6-dimethyl-2-(2-methyl-6-(trifluoromethyl)pyrimidin-4-yl)-1,2,5-oxadiazepan-5-yl)(5-fluoro-2-(2H-1,2,3-triazol-2-yl)phenyl)methanone] | 70 | 83 |  | 
Cc1nc(C(F)F)cc(N2C[C@H](C)N(C(=O)c3cc(Cl)ccc3-n3nccn3)[C@H](C)CO2)n1 [Example 182, (5-chloro-2-(2H-1,2,3-triazol-2-yl)phenyl)((4S,6R)-2-(6-(difluoromethyl)-2-methylpyrimidin-4-yl)-4,6-dimethyl-1,2,5-oxadiazepan-5-yl)methanone] | 100 | 98 |  | 
Cc1nc(N2C[C@H](C)N(C(=O)c3cc(Cl)ccc3-n3nccn3)[C@H](C)CO2)cc(C(F)(F)F)n1 [Example 183, (5-chloro-2-(2H-1,2,3-triazol-2-yl)phenyl)((4S,6R)-4,6-dimethyl-2-(2-methyl-6-(trifluoromethyl)pyrimidin-4-yl)-1,2,5-oxadiazepan-5-yl)methanone] | 105 | 103 |  | 
Cc1nccc(N2C[C@H](C)N(C(=O)c3ccccc3-c3nccs3)[C@H](C)CO2)n1 [Example 184, ((4S,6R)-4,6-dimethyl-2-(2-methylpyrimidin-4-yl)-1,2,5-oxadiazepan-5-yl)(2-(1,3-thiazol-2-yl)phenyl)methanone] | 100 | 102 |  | 
Cc1cc(N2C[C@@H](C)N(C(=O)c3ccccc3-c3nccs3)[C@@H](C)CO2)nc(C)n1 [Example 186, ((4R,6S)-2-(2,6-dimethylpyrimidin-4-yl)-4,6-dimethyl-1,2,5-oxadiazepan-5-yl)(2-(1,3-thiazol-2-yl)phenyl)methanone] | 23 | 66 |  | 
Cc1cc(N2OCCN(C(=O)c3ccccc3-n3nccn3)CC2C)nc(C)n1 (centres unmarked) [Example 188, (2-(2,6-dimethylpyrimidin-4-yl)-3-methyl-1,2,5-oxadiazepan-5-yl)(2-(2H-1,2,3-triazol-2-yl)phenyl)methanone] | 13 | 29 |  | 
